Source: patent US20180228703A1, “Improved Hyaluronan and Modified-Hyaluronan in Biomedical Applications” (CHL Industries, LLC, priority 2015, published 2018)

What was measured:
[1] = Viscosity of HA solution on storage at 25, 40 and 50° C. (cone-plate viscometer); assay type: physicochemical
Experimental: Viscosity measurements are made of vials of sterile, injectable grade, high molecular weight 1% sodium hyaluronate solution (Hycoat® Sterile Wound Management Solution; Hyaluronate Sodium, Solution 20 mg/2 mL; avg. molecular weight 1.0-1.3 million Daltons; supplied by Hymed Group, Bethlehem, Pa.) containing Chlorophyllin Copper Complex Sodium at varying concentrations as summarized in the table below. Preferably, dissolved and atmospheric oxygen is purged from the HA solution by displacing the headspace in the vial with Nitrogen or Argon.
Sodium copper chlorophyllin complex (disodium copper isochlorin e4 minimum content of 25% based on dry weight of complex; supplied by Frontier Scientific, Logan, Utah) is added to the 1% HA test solutions (i.e., 2 mL Hycoat® described above) as follows: 1 gram of CHLcu is added to 99 grams of distilled water, heated to 50° C., mixed for 30 minutes with a magnetic stirrer, and then cooled to room temperature. The specified concentration of CHLCu solution is drawn into a syringe through a 0.45u syringe filter and added to the sterile vial of 1% HA solution under a laminar flow hood. For example, in order to prepare a 1% HA solution containing 100 ppm of CHLcu in the final HA solution 20.5 microliters (0.0205 mL) of the 1% CHLCu solution is injected into the vial of 2 mL of sterile HA solution.
Each of the 2 mL test samples (with and without CHLcu) are stored at 25° C., 40° C., and 50° C. for up to eight weeks. Viscosity measurements are taken at baseline and at 1, 2, 4, 6 and 8 weeks after storage at the three temperatures.
0.5 mL of the test sample is then withdrawn from each vial, causing a temporary shear in the sample viscosity.
All samples (1% HA+CHLCu) are equilibrated prior to viscosity measurement. […]
Each withdrawn sample is allowed to further equilibrate for five additional minutes before taking viscosity measurements. Viscosity is preferably measured at 2 rpm with a cone-plate viscometer (e.g., Brookfield LVD-II Pro Cone/Plate viscometer; CPE-51 spindle from Brookfield Engineering Laboratories, Inc. Middleboro, Mass.).

[2] = system: Vitrase injectable sterile hyaluronidase; test: Anti-hyaluronidase activity: viscosity of 1% HA before and after addition of Vitrase; assay type: biochemical, Ovine
Experimental: In order to assess the anti-hyaluronidase activity of the CHLcu stabilizing agent, 40 units (0.2 mL) of Vitrase® injectable sterile hyaluronidase solution (Ovine, 200 USP Units/mL) is added to each of four 1% HA samples that have been stored at 25° C. for six weeks with (a) no CHLCu; (b) 50 ppm CHLCu; (c) 100 ppm CHLCu; and (d) 250 ppm CHLCu). Anti-hyaluronidase activity is measured by comparing the viscosity of the test samples before and after addition of Vitrase®.
A product containing 1% HA (Hycoat® Sterile Wound Management Solution; Hyaluronate Sodium, Solution 20 mg/2 mL; average molecular weight 1.0-1.3 million Daltons) and 100 mcg/mL CHLCu was combined with 40 units (0.2 mL) of Vitrase® injectable sterile hyaluronidase solution (Ovine, 200 USP Units/mL) and stored at 25° C. for 30 minutes. The viscosity of the combined solution of sodium HA, CHLCu, and Vitrase® composition was seen to drop from 450.6 cps to 161.8 cps, or 35.9% of initial viscosity.
By way of comparison, the viscosity of the same 1% HA solution without CHLCu was measured, and then exposed to 40 units of the same Vitrase. After 30 minutes of Vitrase® contact, the 1% HA solution underwent a viscosity change from 516.2 cps to 43.69 cps or only 8.5% of the initial HA viscosity.

COL15A1 = test: Collagen gene expression in adult human dermal fibroblasts, PCR array; assay type: cell-based; conditions: HDF, 24 hours
Experimental: (§1) Using adult human dermal fibroblasts (Cell Applications, San Diego, Calif.) (“HDF”), the effectiveness of three chlorophyllin materials—Isochlorin E4 Disodium (“E4”); Sodium Copper Chlorophyllin C3999 (“C3999”); and Chlorophyllin Sodium Copper Salt (“CSCS”)—are assessed for the ability to positively effect the differential expression of at least one of the following three collagen genes—COL15A1; COL1A1; and COL5A1. After cell viability tests, the effect of 2 μg/ml E4, 10 μg/ml CSCS, and 10 μg/ml C3999 on adult human dermal fibroblasts (100,000 cells/well) on gene expression were evaluated using PCR arrays.
(§2) HDF cells were incubated for 24 hours in a 12-well plate at a concentration of 100,000 cells/well in Dulbecco's Modified Eagle Medium (DMEM) with 5% Fetal Bovine Serum (FBS). The three test materials were added to the wells, incubated for 24 hours. […] RNA was extracted and purified with NucleoSpin RNA II kit from Machery-Nagel (Bethlehem, Pa.). Purified total RNA was analyzed at 230 nm, 260 nm and 280 nm with Agilent HP-8452A diode array spectrophotometer. The concentration of RNA was equalized across the samples and the expression of genes of interest was measured by real-time quantitative PCR with BioRad iCycler iQ Detection System using Human Extracellular Matrix & Adhesion Molecules PCR array PAHS-13ZA from Qiagen (formerly SA Biosciences, Frederick, Md.). Reactions were performed with 1st strand synthesis kit, SYBR Green master mix and PCR setup parameters from Qiagen. Results were normalized to housekeeping genes with the RT2 Profiler PCR Array Data Analysis version 3.5 software
(§3) Genes were considered differentially expressed if the level of expression was detected in less than 30 cycles, and modulation was 1.5 fold or higher.

COL1A1 = test: as above; assay type: cell-based; conditions: HDF, 24 hours
Experimental: as §1, §2, §3

COL5A1 = test: as above; assay type: cell-based; conditions: HDF, 24 hours
Experimental: as §1, §2, §3

[3] = system: non-soluble type I collagen; test: Non-soluble type I collagen production by HDF, direct ELISA; assay type: cell-based, human; conditions: for % CTRL (COL-I): 4 days, vs water; for % CTRL (Cell # Standardized): non-soluble collagen I standardized to cell numbers; for Cell # Standardized: repeat testing, type I collagen deposition, H2O = 100
Experimental: Adult human dermal fibroblasts (Cell Applications, San Diego, Calif.) were plated in DMEM without phenyl red supplemented with 5% FBS and 1% penicillin/streptomycin (PS) at a concentration of 8,000 cells/well. Test materials, which were stored at 4° C. until dissolved at 20 mg/ml in ddH2O, were added the next day on attached exponentially-growing cells.
Cells were then fixed with 2.5% trichloroacetic acid (TCA) at 4° C., dried overnight, and tested for non-soluble type I collagen, using direct ELISA.
(§4) Cells proliferation was quantified by staining cytoskeletons with sulforhodamine B according to the colorimetric method of Voigt, “Sulforhodamine B assay and chemosensitivity,” Methods Mol. Med. Vol. 110, pp. 39-48 (2005). Statistical significance was assessed with two-tailed paired Student test. Deviations of >15% as compared to the negative water control with p values below 0.05 were considered statistically significant.

[4] = system: adult human dermal fibroblasts; test: Cell proliferation, sulforhodamine B staining; assay type: cell-based; conditions: 4 days, vs water
Experimental: Adult human dermal fibroblasts (Cell Applications, San Diego, Calif.) were plated in DMEM without phenyl red supplemented with 5% FBS and 1% penicillin/streptomycin (PS) at a concentration of 8,000 cells/well. Test materials, which were stored at 4° C. until dissolved at 20 mg/ml in ddH2O, were added the next day on attached exponentially-growing cells. Negative and positive controls were, respectively, type I sterile water and L-Ascorbic acid 2-phosphate sesquimagnesium salt (“MAP”) (Sigma-Aldrich).
as §4

HDF = test: Long term HDF viability, MTT assay; assay type: cell-based, human; conditions: long-term incubation, 1 μg/mL
Experimental: The effect of long-term incubation of HDF with E4 is assessed by MTT, a colorimetric assay for assessing cell metabolic activity.

[5] = 1% HA (Hycoat) + 100 mcg/mL CHLCu, 40 units Vitrase, 25° C., 30 minutes

Chlorophyllin Copper Complex Sodium [CHLcu]
viscosity change compared with samples not containing CHLCu ([1]; 1% HA, 25, 40, 50° C., up to eight weeks): less of a viscosity change | viscosity deviation from baseline after 8 weeks of storage ([1]; HA product stored with CHLcu about 50 to about 250 ppm, 40° C.): ≤ 5% | viscosity increase ([1]; HA product stored with CHLcu about 50 to about 250 ppm, 40° C., about 8 weeks): up to 25% | viscosity before Vitrase ([2]; 1% HA (Hycoat) + 100 mcg/mL CHLCu): 450.6 cps | % of initial viscosity after Vitrase [2, 5]: 35.9% | viscosity after Vitrase [2, 5]: 161.8 cps | loss of viscosity when challenged with hyaluronidase ([2]; product containing HA (or modified HA) and CHLCu): reduced loss of viscosity

Chlorophyllin Sodium Copper Salt [CSCS]
COL15A1 expression (modulation) (COL15A1; 10 μg/ml): 1.2 fold | COL1A1 expression (modulation) (COL1A1; 10 μg/ml): 1.5 fold | COL5A1 expression (modulation) (COL5A1; 10 μg/ml): 1.7 fold | % CTRL (COL-I) ([3]; 5 μg/mL): 95 % CTRL | % CTRL (COL-I) ([3]; 10 μg/mL): 85 % CTRL | % CTRL (COL-I) ([3]; 20 μg/mL): 84 % CTRL | % CTRL (Cell # Standardized) ([3]; 5 μg/mL): 99 % CTRL | % CTRL (Cell # Standardized) ([3]; 10 μg/mL): 96 % CTRL | % CTRL (Cell # Standardized) ([3]; 20 μg/mL): 94 % CTRL | Cell # Standardized ([3]; 0.25 ug/ml): 97 | Cell # Standardized ([3]; 1 μg/ml): 96 | Cell # Standardized ([3]; 2 μg/ml): 114 | Cell # Standardized ([3]; 5 μg/ml): 110 | % CTRL (Cell #) ([4]; 5 μg/mL): 95 % CTRL | % CTRL (Cell #) ([4]; 10 μg/mL): 87 % CTRL | % CTRL (Cell #) ([4]; 20 μg/mL): 88 % CTRL

Isochlorin E4 Disodium
COL15A1 expression (modulation) (COL15A1; 2 μg/ml): 1.2 fold | COL1A1 expression (modulation) (COL1A1; 2 μg/ml): 1.2 fold | COL5A1 expression (modulation) (COL5A1; 2 μg/ml): 1.5 fold | HDF cell metabolic activity (MTT) (HDF): unaffected | % CTRL (COL-I) ([3]; 2 μg/mL): 120 % CTRL | % CTRL (COL-I) ([3]; 5 μg/mL): 94 % CTRL | % CTRL (COL-I) ([3]; 10 μg/mL): 90 % CTRL | % CTRL (Cell # Standardized) ([3]; 2 μg/mL): 133 % CTRL | % CTRL (Cell # Standardized) ([3]; 5 μg/mL): 115 % CTRL | % CTRL (Cell # Standardized) ([3]; 10 μg/mL): 111 % CTRL | Cell # Standardized ([3]; 0.25 ug/ml): 88 | Cell # Standardized ([3]; 1 μg/ml): 89 | Cell # Standardized ([3]; 2 μg/ml): 113 | Cell # Standardized ([3]; 5 μg/ml): 101 | % CTRL (Cell #) ([4]; 2 μg/mL): 89 % CTRL | % CTRL (Cell #) ([4]; 5 μg/mL): 81 % CTRL | % CTRL (Cell #) ([4]; 10 μg/mL): 80 % CTRL

L-Ascorbic acid 2-phosphate sesquimagnesium salt [MAP, reference compound]
% CTRL (Cell #) ([4]; 50 μg/mL): 111 % CTRL | % CTRL (Cell #) ([4]; 100 μg/mL): 100 % CTRL

Sodium Copper Chlorophyllin C3999
COL15A1 expression (modulation) (COL15A1; 10 μg/ml): 1.5 fold | COL1A1 expression (modulation) (COL1A1; 10 μg/ml): 1.2 fold | COL5A1 expression (modulation) (COL5A1; 10 μg/ml): 1.3 fold | % CTRL (COL-I) ([3]; 5 μg/mL): 97 % CTRL | % CTRL (COL-I) ([3]; 10 μg/mL): 110 % CTRL | % CTRL (COL-I) ([3]; 20 μg/mL): 121 % CTRL | % CTRL (Cell # Standardized) ([3]; 5 μg/mL): 101 % CTRL | % CTRL (Cell # Standardized) ([3]; 10 μg/mL): 118 % CTRL | % CTRL (Cell # Standardized) ([3]; 20 μg/mL): 145 % CTRL | % CTRL (Cell #) ([4]; 5 μg/mL): 95 % CTRL | % CTRL (Cell #) ([4]; 10 μg/mL): 92 % CTRL | % CTRL (Cell #) ([4]; 20 μg/mL): 83 % CTRL
